These results are taken from US20110301104A1, “Transition state structure of orotate phosphoribosyl transferases and uses thereof” (priority 2008, published 2011).

Format in all cases: biochemical
For assay [1], the target named is T1, HsOPRT (Homo sapiens, UniProt P11172).
T1 construct: This HsUMPase truncation construct only expresses its HsOPRT domain; His6 (thrombin-cleavable) (N, cleaved yes); made in house; host or cells: E. coli BL21-AI
T1 sequence (P11172 1-245): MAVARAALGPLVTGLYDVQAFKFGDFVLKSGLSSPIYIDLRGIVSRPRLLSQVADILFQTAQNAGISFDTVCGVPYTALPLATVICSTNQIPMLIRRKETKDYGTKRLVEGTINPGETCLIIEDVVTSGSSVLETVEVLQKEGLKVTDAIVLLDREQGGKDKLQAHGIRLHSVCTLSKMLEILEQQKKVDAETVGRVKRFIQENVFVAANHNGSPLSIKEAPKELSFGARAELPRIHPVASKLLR
The experiment in a line: HsOPRT kinetic and inhibition assay (OMP with PA or PPi). The procedure:
(§1) Expression and Purification of PfOPRT and HsOPRT. The pDEST14 vectors encoding the two OPRT genes were transformed into BL21-AI E. coli competent cells and grown in LB+Amp (100 μg mL^−1) at 37° C. to an OD600 of 0.6. Protein expression was induced by adding 0.02% L-arabinose with overnight growth at 37° C. Cells were harvested by centrifugation at 4° C., weighted and resuspended in lysis buffer (20 mM Tris-HCl, 500 mM NaCl and 5 mM Imidazole, pH=7.9, 3 mL/gram cell pellet). Lysozyme (100 μg mL^−1), DNase I (10 μg mL^−1) and protease inhibitor (1 tablet/8 grams of cells) (Roche Applied Science, Indianapolis, Ind.) were added to the solution. Following disruption in a French Press, cell lysate was centrifuged at 30,000 g for […] at 4° C. […] The 6×His-OPRTs were eluted with a gradient of imidazole (20 mM ˜500 mM). The OPRT bands were visualized on SDS-PAGE gels and fractions with high purity were pooled, made to 10% glycerol and 10 mM β-ME (final concentration), concentrated and dialyzed overnight at 4° C. to remove imidazole. His-tags were removed during dialysis by the presence of thrombin (1 unit/0.1 mg). His-tag free OPRTs were purified by Superdex 200 26/60 Gel filtration column, concentrated and stored at −80° C. […] Reactions were monitored by the absorbance increase at 295 nm to give an extinction coefficient of 3.67 mM^−1 cm^−1.

Assay [2] has as its target T2, PfOPRT (Plasmodium falciparum, UniProt Q8I3Y0).
T2 construct: His6 (thrombin-cleavable) (N, cleaved yes); made in house; host or cells: E. coli BL21-AI
T2 sequence (Q8I3Y0 1-281): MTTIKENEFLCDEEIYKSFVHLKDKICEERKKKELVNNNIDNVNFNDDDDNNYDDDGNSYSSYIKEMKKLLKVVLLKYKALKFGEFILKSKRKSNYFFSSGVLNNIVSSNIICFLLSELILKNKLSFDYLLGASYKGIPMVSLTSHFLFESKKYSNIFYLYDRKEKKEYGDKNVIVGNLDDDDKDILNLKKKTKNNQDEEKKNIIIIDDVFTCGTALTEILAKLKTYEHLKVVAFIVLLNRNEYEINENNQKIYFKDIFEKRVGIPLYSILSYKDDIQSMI
The experiment in a line: PfOPRT kinetic and inhibition assay (OMP with PA or PPi). The procedure: as §1

For assay [3], the target named is T2, PfOPRT. The experiment in a line: PfOPRT catalytic activity with p-nitrophenyl β-D-ribose 5′-phosphate as substrate. The conditions noted are these: with PA or pyrophosphate; absorbance at 400 nm; conditions could detect 10^−6 of normal activity. As to the method: (§2) The PfOPRT and HsOPRT catalytic activities with p-nitrophenyl β-D-ribose 5′-phosphate were measured at 25° C. in solutions containing 50 mM Tris-HCl (pH=8.0), 5 mM MgCl2 and varied concentrations of p-nitrophenyl β-D-ribose 5′-phosphate and PA or pyrophosphate. Reaction rates were monitored through the absorbance increase at 400 nm.

Assay [4] concerns the target T1, HsOPRT. The experiment in a line: HsOPRT catalytic activity with p-nitrophenyl β-D-ribose 5′-phosphate as substrate. The conditions noted are these: with PA or pyrophosphate; absorbance at 400 nm. The procedure:
as §2

[5] abbreviates: competitive inhibition with respect to OMP, PPi as substrate, 25° C., pH 8.0.

Like-named read-outs stand apart in the source and are kept apart here.

Regarding `O=C(O)c1cc(=O)[nH]c(=O)n1[C@@H]1O[C@H](COP(=O)(O)O)[C@@H](O)[C@H]1O` [OMP, orotidine 5′-monophosphate, reference compound], the “reduction of kcat/Km with PA relative to PPi as the nucleophile” value on HsOPRT [1] (OMP, PA versus PPi) was 8.3 fold; on PfOPRT [2] (OMP, PA versus PPi) it was 110 fold.

With `O=[N+]([O-])c1ccc(O[C@@H]2O[C@H](COP(=O)(O)O)[C@@H](O)[C@H]2O)cc1` [p-nitrophenyl β-D-ribose 5′-phosphate], the Ki (in general, a dissociation constant, usually derived from enzyme kinetics or from competition with a known ligand) was 41 nM at HsOPRT [1] and 40 nM on PfOPRT [2]. The Km/Ki came out at 38 at HsOPRT [1] (Km of OMP over Ki of inhibitor) and 93 on PfOPRT [2] (Km of OMP over Ki of inhibitor). For the same compound, the “catalytic activity as substrate (O-glycosidic bond cleavage)” value is “did not catalyze the O-glycosidic bond cleavage” at PfOPRT [3] and “Poor catalytic activity” on HsOPRT [4].

Turning to `O=[N+]([O-])c1ccc(O[C@@H]2O[C@H](CO)[C@@H](O)[C@H]2O)cc1` [p-nitrophenyl β-D-ribose, reference compound], the inhibition constant (Ki) on HsOPRT [1] (setting [5]) is 121 nM; on PfOPRT [2] (setting [5]), 188 nM.
